Measured values as given in the NIST ThermoML archive (doi:10.1016/j.tca.2013.08.017).
± gives the expanded uncertainty stated by the source.

How the values were obtained:
[1] = 101.33 kPa, Crystal, X-ray diffraction
[2] = molar heat capacity at constant pressure; conditions: 101.33 kPa, Small sample (50 mg) DSC

Compound | molar heat capacity at constant pressure ([2]; 273 K, Crystal) | molar heat capacity at constant pressure ([2]; 283 K, Crystal) | molar heat capacity at constant pressure ([2]; 293 K, Crystal) | molar heat capacity at constant pressure ([2]; 303 K, Crystal) | molar heat capacity at constant pressure ([2]; 313 K, Crystal) | molar heat capacity at constant pressure ([2]; 323 K, Crystal) | molar heat capacity at constant pressure ([2]; 333 K, Crystal) | molar heat capacity at constant pressure ([2]; 343 K, Crystal) | molar heat capacity at constant pressure ([2]; 353 K, Crystal) | molar heat capacity at constant pressure ([2]; 363 K, Crystal) | molar heat capacity at constant pressure ([2]; 373 K, Crystal) | molar heat capacity at constant pressure ([2]; 383 K, Crystal) | molar heat capacity at constant pressure ([2]; 393 K, Crystal) | molar heat capacity at constant pressure ([2]; 403 K, Crystal) | molar heat capacity at constant pressure ([2]; 413 K, Crystal) | molar heat capacity at constant pressure ([2]; 423 K, Crystal) | other results
CC(C)(C)n1ncc2c(C(F)(F)F)n[nH]c(=O)c21 | 174 ± 3.5 J/K/mol | 202.9 ± 4.1 J/K/mol | 231.9 ± 4.6 J/K/mol | 260.8 ± 5.2 J/K/mol | 289.8 ± 5.8 J/K/mol | 318.7 ± 6.4 J/K/mol | 347.6 ± 7 J/K/mol | 376.6 ± 7.5 J/K/mol | 405.5 ± 8.1 J/K/mol | 434.4 ± 8.7 J/K/mol | 463.4 ± 9.3 J/K/mol | 492.3 ± 9.8 J/K/mol | 521.2 ± 10 J/K/mol | 550.2 ± 11 J/K/mol | 579.1 ± 12 J/K/mol | 608.1 ± 12 J/K/mol | mass density ([1]; 293 K): 1451 ± 7 kg/m3; molar heat capacity at constant pressure ([2]; 448 K, Liquid): 813.3 ± 16 J/K/mol; molar heat capacity at constant pressure ([2]; 458 K, Liquid): 923.4 ± 18 J/K/mol; molar heat capacity at constant pressure ([2]; 463 K, Liquid): 978.4 ± 20 J/K/mol
CC(C)(C)n1ncc2c(-c3ccccc3)n[nH]c(=O)c21 | 944.5 ± 19 J/K/mol | 1034.5 ± 21 J/K/mol | 1124.7 ± 22 J/K/mol | 1216.4 ± 24 J/K/mol | 1310.8 ± 26 J/K/mol | 1409.1 ± 28 J/K/mol | 1512.5 ± 30 J/K/mol | 1622.1 ± 32 J/K/mol | 1739.2 ± 35 J/K/mol | 1865 ± 37 J/K/mol | 2000.7 ± 40 J/K/mol | 2147.5 ± 43 J/K/mol | 2306.5 ± 46 J/K/mol | 2479 ± 50 J/K/mol | 2666.2 ± 53 J/K/mol | 2869.3 ± 57 J/K/mol | mass density ([1]; 296 K): 1298 ± 6 kg/m3
